Test system: hepatocytes
Assay: Seq-Well scRNA-Seq of hepatocytes after APAP overdose (signature scores, DEG vs untreated)
Format: in vivo, mouse
Details: A96 vs untreated (UT)

## CC(=O)Nc1ccc(O)cc1 [APAP, acetaminophen]
  Herpud1 avg_logFC: 0.3333
  Herpud1 pct.1: 0.9
  Hhex avg_logFC: 0.3209
  Hhex pct.1: 0.543
  Hmgcl avg_logFC: 0.353
  Hmgcl pct.1: 0.871
  Hmgcs1 avg_logFC: 0.2967
  Hmgcs1 pct.1: 0.858
  Hmgcs2 avg_logFC: 0.4234
  Hmgcs2 pct.1: 0.996
  Hnf4a avg_logFC: 0.2824
  Hnf4a pct.1: 0.858
  Hpgd avg_logFC: 0.3398
  Hpgd pct.1: 0.588
  Hpx avg_logFC: −0.264
  Hpx pct.1: 0.998
  Hrg avg_logFC: 0.4095
  Hrg pct.1: 0.923
  Hsd3b5 avg_logFC: −0.7981
  Hsd3b5 pct.1: 0.25
  Hsd17b7 avg_logFC: 0.3056
  Hsd17b7 pct.1: 0.56
  Hsd17b10 avg_logFC: 0.3092
  Hsd17b10 pct.1: 0.841
  Hspa8 avg_logFC: 0.4257
  Hspa8 pct.1: 0.905
  Igfbp4 avg_logFC: 0.4189
  Igfbp4 pct.1: 0.964
  Ildr2 avg_logFC: 0.2509
  Ildr2 pct.1: 0.356
  Insig2 avg_logFC: 0.3594
  Insig2 pct.1: 0.928
  Iqgap2 avg_logFC: 0.2645
  Iqgap2 pct.1: 0.799
  Kif1b avg_logFC: 0.3909
  Kif1b pct.1: 0.686
  Lcat avg_logFC: 0.3294
  Lcat pct.1: 0.886
  Lifr avg_logFC: −0.4875
  Lifr pct.1: 0.556
  Lipa avg_logFC: 0.4376
  Lipa pct.1: 0.791
  Lpgat1 avg_logFC: 0.275
  Lpgat1 pct.1: 0.671
  Lpin2 avg_logFC: 0.2841
  Lpin2 pct.1: 0.781
  Lrrc58 avg_logFC: 0.2641
  Lrrc58 pct.1: 0.543
  Man2a1 avg_logFC: 0.3324
  Man2a1 pct.1: 0.737
  Maob avg_logFC: 0.2722
  Maob pct.1: 0.708
  Mat1a avg_logFC: 0.9328
  Mat1a pct.1: 1
  Mettl7b avg_logFC: 0.3784
  Mettl7b pct.1: 0.949
  Mfsd2a avg_logFC: 0.3802
  Mfsd2a pct.1: 0.41
  Mia3 avg_logFC: 0.3563
  Mia3 pct.1: 0.81
  Mt1 avg_logFC: 0.638
  Mt1 pct.1: 0.839
  Mt2 avg_logFC: 0.3136
  Mt2 pct.1: 0.548
  Mtdh avg_logFC: 0.321
  Mtdh pct.1: 0.649
  Mttp avg_logFC: 0.2755
  Mttp pct.1: 0.816
  Mup3 avg_logFC: −0.4098
  Mup3 pct.1: 1
  Mup5 avg_logFC: −1.266
  Mup5 pct.1: 0.538
  Mup6 avg_logFC: −2.021
  Mup6 pct.1: 0.778
  Mup7 avg_logFC: −1.145
  Mup7 pct.1: 0.938
  Mup8 avg_logFC: −0.7871
  Mup8 pct.1: 0.067
  Mup9 avg_logFC: −1.818
  Mup9 pct.1: 0.619
  Mup11 avg_logFC: −1.559
  Mup11 pct.1: 0.905
  Mup12 avg_logFC: −0.8331
  Mup12 pct.1: 0.571
  Mup15 avg_logFC: −1.239
  Mup15 pct.1: 0.156
  Mup16 avg_logFC: −1.119
  Mup16 pct.1: 0.567
  Mup17 avg_logFC: −1.889
  Mup17 pct.1: 0.98
  Mup18 avg_logFC: −1.297
  Mup18 pct.1: 0.928
  Mup19 avg_logFC: −1.258
  Mup19 pct.1: 0.973
  Mup21 avg_logFC: −0.94
  Mup21 pct.1: 0.676
  Ncl avg_logFC: 0.2809
  Ncl pct.1: 0.731
  Ndrg2 avg_logFC: 0.3802
  Ndrg2 pct.1: 0.985
  Nfe2l1 avg_logFC: 0.2902
  Nfe2l1 pct.1: 0.508
  Nfe2l2 avg_logFC: 0.3048
  Nfe2l2 pct.1: 0.465
  Nfib avg_logFC: 0.2501
  Nfib pct.1: 0.55
  Nr1i3 avg_logFC: 0.3735
  Nr1i3 pct.1: 0.625
  Nucks1 avg_logFC: 0.2509
  Nucks1 pct.1: 0.621
  Nudt7 avg_logFC: −1.14
  Nudt7 pct.1: 0.602
  Pabpc1 avg_logFC: 0.3693
  Pabpc1 pct.1: 0.766
  Palmd avg_logFC: 0.2584
  Palmd pct.1: 0.43
  Pbld1 avg_logFC: 0.2811
  Pbld1 pct.1: 0.723
  Pcbp2 avg_logFC: 0.3113
  Pcbp2 pct.1: 0.621
  Pdia6 avg_logFC: −0.3359
  Pdia6 pct.1: 0.611
  Pdk1 avg_logFC: 0.2561
  Pdk1 pct.1: 0.438
  Pex11a avg_logFC: 0.462
  Pex11a pct.1: 0.7
  Phyh avg_logFC: 0.2541
  Phyh pct.1: 0.998
  Pigr avg_logFC: 0.2754
  Pigr pct.1: 0.957
  Plin5 avg_logFC: 0.2663
  Plin5 pct.1: 0.532
  Pltp avg_logFC: 0.2919
  Pltp pct.1: 0.237
  Pnp1a8 avg_logFC: 0.3083
  Pnp1a8 pct.1: 0.723
  Ppap2b avg_logFC: 0.2573
  Ppap2b pct.1: 0.593
  Ppara avg_logFC: 0.3055
  Ppara pct.1: 0.614
  Ppib avg_logFC: −0.3519
  Ppib pct.1: 0.696
  Ppm1a avg_logFC: 0.276
  Ppm1a pct.1: 0.571
  Ppp2r5a avg_logFC: 0.3493
  Ppp2r5a pct.1: 0.764
  Prkd3 avg_logFC: 0.305
  Prkd3 pct.1: 0.682
  Prlr avg_logFC: 0.3611
  Prlr pct.1: 0.574
  Pten avg_logFC: 0.3025
  Pten pct.1: 0.64
  Ptms avg_logFC: 0.3243
  Ptms pct.1: 0.806
  Ptp4a2 avg_logFC: 0.259
  Ptp4a2 pct.1: 0.691
  Ptplad1 avg_logFC: 0.2783
  Ptplad1 pct.1: 0.654
  Ptprd avg_logFC: 0.2719
  Ptprd pct.1: 0.582
  Pxmp4 avg_logFC: 0.2794
  Pxmp4 pct.1: 0.687
  Rdh7 avg_logFC: 0.2671
  Rdh7 pct.1: 0.995
  Rdh16 avg_logFC: 0.3716
  Rdh16 pct.1: 0.494
  Reep6 avg_logFC: 0.3193
  Reep6 pct.1: 0.891
  Retsat avg_logFC: 0.5333
  Retsat pct.1: 0.957
  Saa1 avg_logFC: −1.157
  Saa1 pct.1: 0.232
  Sc4mol avg_logFC: 0.2814
  Sc4mol pct.1: 0.781
  Sdhc avg_logFC: 0.3181
  Sdhc pct.1: 0.76
  Sec14l2 avg_logFC: 0.2724
  Sec14l2 pct.1: 0.939
  Secisbp2l avg_logFC: 0.2781
  Secisbp2l pct.1: 0.529
  Selenbp2 avg_logFC: −1.258
  Selenbp2 pct.1: 0.612
  Sepp1 avg_logFC: 0.2839
  Sepp1 pct.1: 1
  Serpina1a avg_logFC: −0.2708
  Serpina1a pct.1: 0.991
  Serpina1b avg_logFC: −0.3845
  Serpina1b pct.1: 0.996
  Serpina1c avg_logFC: −0.3176
  Serpina1c pct.1: 0.998
  Serpina1e avg_logFC: −1.134
  Serpina1e pct.1: 0.977
  Serpina3k avg_logFC: −0.3036
  Serpina3k pct.1: 1
  Serpina12 avg_logFC: −0.5326
  Serpina12 pct.1: 0.226
  Serpinf1 avg_logFC: 0.2572
  Serpinf1 pct.1: 0.934
  Sh3glb1 avg_logFC: 0.2538
  Sh3glb1 pct.1: 0.433
  Slc4a4 avg_logFC: 0.4025
  Slc4a4 pct.1: 0.609

From patent US20230053540A1, “TREATMENT OF LIVER INJURY” (Massachusetts Institute of Technology, priority 2019, published 2023)
